The source of these data is paper PMC7602804 (Nutrients, 2020).

This data set has as its system Caco-2 monolayers. The experiment in a line: Apical to basolateral transport of milk peptides across Caco-2 monolayers (LC-MS/MS of basolateral medium). Type of data set: in vitro ADME, human. The conditions noted are these: 2.5 h. The method, then:
The human colorectal adenocarcinoma cell line, Caco-2, was obtained from DSMZ (Braunschweig, Germany). The cells were grown to 50–60% confluence in Dulbecco’s Modified Eagle Medium (DMEM) Glutamax cell culture medium, supplemented with 10% heat-inactivated fetal bovine serum, 100 units/mL of penicillin and 100 μg/mL of streptomycin (all from Invitrogen, Carlsbad, CA, USA) in a humidified 5% CO2/95% air atmosphere at 37 °C. The cells used in the experiments were between passages 30 and 40.
The Caco-2 cells used for transport studies were seeded in polyethylene terephthalate culture inserts, with a pore size of 0.4 μm and a growth area of 0.33 cm^2 at a density of approximately 25,000 cells/insert. The Caco-2 cells were grown for three weeks on the porous membrane before they were used for transepithelial transport. The integrity of the monolayers was confirmed by measuring the TEER using a Millicell ERS-2 volt ohmmeter. Only Caco-2 monolayers with TEER values above 400 Ω cm^2 were used for the transport analysis.
Following the TEER value measurement, the Caco-2 and PBEC monolayers were gently washed twice with phosphate-buffered saline, and the transport medium (Hanks’ Balanced Salt solution supplemented with 10 mM of HEPES) was added to the apical and basolateral compartments. The inserts were incubated for 15 min or 2.5 h with the purified milk peptides (0.1 mg/mL) or the synthetic PIGSENSEKTTMPLW peptide (2 µg/mL), after which medium from the apical and basolateral compartments were collected for liquid chromatography tandem mass spectrometry (LC-MS/MS) analysis. Inserts incubated with a medium without peptides served as the control in the transport experiments. Membrane integrity was validated by addition of D-[1-^14C]-Mannitol (3.5 µM, 56.8 mCi/mmol) (Perkin Elmer, Waltham, MA, USA) to the upper chamber of the culture inserts with or without milk peptides for 2.5 h. The passive permeability experiments were performed on four or five individual culture inserts. Basolateral samples were mixed with Ultima Gold liquid scintillation fluid (Perkin Elmer) and counted in a Tri-Carb 2810 TR scintillation counter (Perkin Elmer). The apparent permeability coefficient (Papp, cm/s) was determined as Papp = (dQ/dt)/(AC0) where dQ/dt is the steady state flux (cpm/s), A is the surface area of the cell culture insert membrane and C0 is the initial concentration in the apical compartment (cpm/mL).
LC-MS/MS analysis was performed on a TripleTOF 6600 mass spectrometer equipped with an Exigent nanoLC 415 system (AB Sciex, Les Ulis, France). All samples were micro-purified using 3 M Empore C18 discs packed in pipette tips. The lyophilized samples were dissolved in 0.1% formic acid, injected on a trap column (2 cm × 100 µm inner diameter) and separated on an analytical column packed in-house in a pulled emitter (15 cm × 75 µm inner diameter). All columns were packed with ReproSil-Pur C18-AQ 3 µm resin (courtesy of Dr. Marisch, Ammerbuch-Entringen, Germany). Peptides were eluted directly into the mass spectrometer with a linear gradient from 5 to 35% solvent B (0.1% formic acid in acetonitrile) for 20 min with a flowrate of 250 nL/min, followed after 10 min with 100% solvent B. Data files were converted to Mascot Generic Format using the Raw Converter (version 1.1.0.18) (http://fields.scripps.edu/rawconv/) or the AB Sciex MS Data Converter beta 1.1 (AB Sciex, Les Ulis, France). The generated peak lists were searched against the Bos taurus proteome (UniProt database, https://www.uniprot.org)) using an in-house Mascot search engine (Matrix Science, London, UK). The searches were made without specifying a protease and with oxidation (Met) and phosphorylation (ST) as variable modifications. Peptide tolerance was set to 10 ppm and MS/MS tolerance was set to 0.2 Da. […]
For orientation: Passage across Caco-2 layers is used to estimate intestinal permeability.

No end group written: not given here.

For PIGSENSEKTTMPLW [PIGSENSEKTTMPLW], the “Peptide identified in the basolateral chamber of Caco-2 monolayers (transported)” value (Caco-2, 3 weeks on PET inserts 0.4 μm, TEER above 400 Ω cm^2, A-B, mix of 192 purified milk peptides 0.1 mg/mL apical, HBSS + 10 mM HEPES, LC-MS/MS of basolateral medium, identified in two out of three experiments) is given as “identified in the basolateral chamber”. In addition, the “Fate of synthetic peptide during transport over Caco-2 monolayers” value (synthetic peptide 2 µg/mL apical, LC-MS/MS of basal medium) is “cleaved by carboxypeptidases during the transport”.
